Measurements published in patent US11932850B2, “Cancer chemoprevention with STAT3 blockers” (Jill M. Siegfried, LLC, priority 2018, dated 2024).
“Also recorded” adds a separate entry of the source. Where two headings read alike, the source gives them in different places.

Legend:
[1] = system: c-Myc in 201T-derived tumors; assay: c-Myc expression in 201T xenograft tumors (Western blot, RT-qPCR); format: in vivo, nude mice
[2] = system: NSCLC cells (H1975 and 201T); assay: Annexin V/propidium iodide apoptosis by flow cytometry; format: cell-based, human
Experimental: Statistical significance was determined as *P<0.05, n=3.
Dose-response experiments assessing the relative number of metabolically active viable cells were performed by transfecting cells with increasing concentrations of CS3D or CS3M, followed by performance of MTS assays. After 72 hours, 5 mg/ml of MTS reagent was added in the plates and incubated 37° C. for 20 minutes. The plates were then read at 490 nm in a Synergy microplate reader (BioTek, Winooski, Vermont) using Gen5 2.05 software. Data obtained following treatment with C3SD or CS3M were normalized to treatment with lipofectamine alone. […] After twenty four hours of transfection, cells were resuspended in annexin V-binding buffer, incubated with 5 μL of propidium iodide (BD Biosciences) and subjected to flow cytometric analysis, using a BD FACS Canto II Flow Cytometer.

H1975 cells = assay: MTS cell viability assay, H1975; format: cell-based, human; conditions: for IC50: MTS 72 hours
Experimental: NSCLC cell lines (201T and H1975) were transfected with CS3D or CS3M (cyclic STAT3 mutant decoy) at concentrations ranging from 0 nM to 600 nM. Using MTS assays, cell viabilities were assessed 72 hours later. Three independent experiments were performed, using 24-well plates and 4 wells/concentration.
To determine the concentration of CS3D required to inhibit cell viability, increasing concentrations of CS3D was transfected, and after 72 hours, MTS assays were used to assess cell viability. Data were normalized to cells treated with lipofectamine alone.
Fluorescently-labeled CS3M and CS3D (with iFluor) were also produced using enzymatic ligation as described above and used to assess uptake efficiency. Transfections of the cyclic oligonucleotides were performed using Lipofectamine 2000 (Life Technologies) in opti-MEM media (Life Technologies) as follows: Cells were plated at […] confluency, and exposed to transfection media containing the respective circularized oligonucleotides for 24 hours at 37° C. Post-transfection, cell recovery was initiated in media containing 10% heat-inactivated fetal bovine serum.
Dose-response experiments assessing the relative number of metabolically active viable cells were performed by transfecting cells with increasing concentrations of CS3D or CS3M, followed by performance of MTS assays. After 72 hours, 5 mg/ml of MTS reagent was added in the plates and incubated 37° C. for 20 minutes. The plates were then read at 490 nm in a Synergy microplate reader (BioTek, Winooski, Vermont) using Gen5 2.05 software. Data obtained following treatment with C3SD or CS3M were normalized to treatment with lipofectamine alone. […] To assess induction of apoptosis in response to CS3D, H1975 and 201T cells were transfected with 100 nM of CS3M or CS3D. After twenty four hours of transfection, cells were resuspended in annexin V-binding buffer, incubated with 5 μL of propidium iodide (BD Biosciences) and subjected to flow cytometric analysis, using a BD FACS Canto II Flow Cytometer.

[3] = system: Ki-67, p-STAT3, NF-κB in H1975 xenografts; assay: IHC of H1975 xenografts after 5 daily iv injections; format: in vivo, nude mice
Experimental: Because tumors treated for several weeks with the STAT3 decoy were largely composed of debris (as illustrated in FIG. 11), xenografts were examined after only 5 daily tail vein injections to determine what cellular changes were induced prior to collapse of the intracellular tumor structure. […] Tumors derived from H1975 xenografs were analyzed by immunohistochemical staining for p-STAT3 after 5 daily iv injections of either STAT3 decoy or mutant decoy. […] This effect is quantified in FIG. 9B.
Images were captured at 40× magnification. A shift from 41% of cells was observed and scored as high-grade staining with CS3M treatment to 13% with high-grade staining in the presence of CS3D, with corresponding increases in moderate- and low-grade staining in the STAT3 decoy treated group (FIG. 12B). […] Bright field images were captured at 40× magnification. Frequency of high-grade staining for p-STAT3 differed between CS3D and CS3M treatment groups (23% in CS3D-treated and 51% in CS3M treated, with corresponding increase in low-grade staining in presence of the active decoy (FIG. 9B). Significant degradation of p-STAT3 protein was detected by IHC in tumors was observed after treatment with CS3D. Percent of high staining fields was reduced from 48% to 22% while percent of fields with low staining increased, P<0.001 (FIG. 9B).
Immunohistochemical analysis: Tumors were excised for immunohistochemical (IHC) staining; 5-μm (micron) sections were cut from formalin-fixed paraffin-embedded tissue blocks, deparaffinized and rehydrated using successive washes of xylene followed by ethanol. Antigen retrieval was performed in a microwave oven (for 20 minutes) in an unmasking solution containing sodium citrate buffer followed by peroxidase blocking in 3% hydrogen peroxide. The sections were incubated in ABC blocking buffer (Vector laboratories Inc, Burlingame, California) for 1 hour at room temperature. Sections were then stained with H&E (hematoxylin and eosin) or subjected to sequential incubations with different primary antibodies and peroxidase-conjugated goat anti-rabbit secondary antibodies. The following primary antibodies were used (at the indicated dilutions): cleaved caspase-3 (#9664, Cell Signaling, 1:300), p-STAT3 (#9145, Cell Signaling, 1:400), Ki67 (#ab15580, Abcam, 1:1000). Sections were developed with DAB and counterstained with hematoxylin. Bright field microscopy was performed using Leica DM 4000 B LED microscope and images were captured at 20× and 40× magnification using LASv4.7 software. IHC analysis was done as a blinded study with 100 images from each treatment group graded as low, moderate, or high. Staining was graded as low (<30% positive cells per field, scored as 1), moderate (30-60% positive cells per field, scored as 2) or high (>60% positive cells per field, scored as 3).

[4] = Toxicology studies in mice; format: in vivo; conditions: repeated doses up to 100 mg/kg
From the text: The novel mechanism of action combined with the stability of the circularized STAT3 decoy and its low toxicity are favorable features for clinical application. In all experiments with the STAT3 decoy, activity is compared to a mutant version with a T-A base pair replacing a G-C base pair at position 9, differing by the two nucleotides in the base pair.

CS3D (DNA GATTTACGGGAAATGCSCATTTCCC; cyclic decoy with two hexaethylene glycol linkers, further chemistry not given here)
mean decrease of c-Myc protein ([1]; 201T xenografts, CS3D vs CS3M): 70% | reduction of c-Myc gene expression (mRNA) relative to GAPDH ([1]; tumor lysates of 201T and H1975 xenografts (FIG. 7E), compared to CS3M): 60-70% | increase in number of cells undergoing apoptosis ([2]; 100 nM, 24 h, compared to CS3M): 2 fold | increase in the percent of apoptotic cells ([2]; 201T and H1975, relative to CS3M): 2 fold | increase in number of apoptotic cells ([2]; one transfection, all 4 cell lines): 2 fold | inhibition in proliferation (H1975 cells; 0.3 μM transfection, H1975, relative to CS3M): 50% | IC50 (H1975 cells; H1975 (mutant EGFR), read-out: IC50): ~300 nM | IC50 (H1975 cells; H1975, EGFR mutant (L858R/T790M), KRAS WT, read-out: CS3D IC50): 300 nM | Ki-67 high-grade staining ([3]; H1975 xenografts, 5 daily injections): 13% | frequency of high-grade staining for p-STAT3 ([3]; H1975 xenografts, 5 daily iv injections): 23% | percent of high staining fields for p-STAT3 ([3]; H1975 xenografts, second statement in b134 (FIG. 9B)): 22% | induction of apoptosis at early time point ([3]; after 5 daily injections (not shown)): no induction of apoptosis | NF-κB nuclear protein ([3]; after five days of treatment): No change | toxicology: body weight, organ histology, clinical chemistry [4]: no significant effects on body weight, organ histology, or clinical chemistry; also recorded: no appreciable changes in blood chemistry, weight or organ structure
